{"source": "patent US10179781B2", "about": "“Sodium channel modulators for the treatment of pain” (CHROMOCELL CORPORATION, priority 2013, dated 2019)", "data": [{"system": "Acetic Acid Writhing Model", "experiment": "Acetic Acid Writhing Model (visceral pain)", "assay_type": "in vivo", "conditions": "relative to vehicle control; 10 to 30 mg/kg intraperitoneal", "procedure": "Writhing Model The Acetic Acid Writhing Model is associated with visceral pain (abdominal pain, such as stomach pain, and pain caused by, for example, bile duct congestion and kidney stones). A writhing test assesses acute peritoneovisceral pain. After acclimation of 2-3 days, a test compound, positive control or vehicle control is administered by intraperitoneal injection (i.p.) or by oral gavage 15-30 minutes prior to administration of acetic acid. The time of administration of test compound is recorded. For mice: 0.6% Acetic acid solution in saline is injected i.p in a volume of 10 ml/kg. For rats: 4% acetic acid in saline is injected i.p in a volume of 2 ml/kg at T=0 minutes. Each animal is placed in a clear plastic cage. At T=5 minutes, the number of writhing movements is counted over a 45 minute period. Alternatively, the writhing movements are counted over a 5-minute period and repeated every 5 minutes, starting at T=5 minutes over a 45-minute period.", "values": [{"smiles": "O=C(O)CNC(=O)c1cc(-c2cc(Cl)ccc2Oc2cc(F)c(S(=O)(=O)Nc3ncns3)cc2Cl)ccn1", "note": "[Example 2, 2-(4-(2-(4-(N-(1,2,4-thiadiazol-5-yl)sulfamoyl)-2-chloro-5-fluorophenoxy)-5-chlorophenyl)picolinamido)acetic acid]", "reduction in pain response, writhing": "48-58%"}]}, {"biological_target": "T1, NaV1.7 (Homo sapiens, UniProt Q15858)", "T1 construct": "expressed in transfected cells", "T1 sequence (Q15858 whole entry)": "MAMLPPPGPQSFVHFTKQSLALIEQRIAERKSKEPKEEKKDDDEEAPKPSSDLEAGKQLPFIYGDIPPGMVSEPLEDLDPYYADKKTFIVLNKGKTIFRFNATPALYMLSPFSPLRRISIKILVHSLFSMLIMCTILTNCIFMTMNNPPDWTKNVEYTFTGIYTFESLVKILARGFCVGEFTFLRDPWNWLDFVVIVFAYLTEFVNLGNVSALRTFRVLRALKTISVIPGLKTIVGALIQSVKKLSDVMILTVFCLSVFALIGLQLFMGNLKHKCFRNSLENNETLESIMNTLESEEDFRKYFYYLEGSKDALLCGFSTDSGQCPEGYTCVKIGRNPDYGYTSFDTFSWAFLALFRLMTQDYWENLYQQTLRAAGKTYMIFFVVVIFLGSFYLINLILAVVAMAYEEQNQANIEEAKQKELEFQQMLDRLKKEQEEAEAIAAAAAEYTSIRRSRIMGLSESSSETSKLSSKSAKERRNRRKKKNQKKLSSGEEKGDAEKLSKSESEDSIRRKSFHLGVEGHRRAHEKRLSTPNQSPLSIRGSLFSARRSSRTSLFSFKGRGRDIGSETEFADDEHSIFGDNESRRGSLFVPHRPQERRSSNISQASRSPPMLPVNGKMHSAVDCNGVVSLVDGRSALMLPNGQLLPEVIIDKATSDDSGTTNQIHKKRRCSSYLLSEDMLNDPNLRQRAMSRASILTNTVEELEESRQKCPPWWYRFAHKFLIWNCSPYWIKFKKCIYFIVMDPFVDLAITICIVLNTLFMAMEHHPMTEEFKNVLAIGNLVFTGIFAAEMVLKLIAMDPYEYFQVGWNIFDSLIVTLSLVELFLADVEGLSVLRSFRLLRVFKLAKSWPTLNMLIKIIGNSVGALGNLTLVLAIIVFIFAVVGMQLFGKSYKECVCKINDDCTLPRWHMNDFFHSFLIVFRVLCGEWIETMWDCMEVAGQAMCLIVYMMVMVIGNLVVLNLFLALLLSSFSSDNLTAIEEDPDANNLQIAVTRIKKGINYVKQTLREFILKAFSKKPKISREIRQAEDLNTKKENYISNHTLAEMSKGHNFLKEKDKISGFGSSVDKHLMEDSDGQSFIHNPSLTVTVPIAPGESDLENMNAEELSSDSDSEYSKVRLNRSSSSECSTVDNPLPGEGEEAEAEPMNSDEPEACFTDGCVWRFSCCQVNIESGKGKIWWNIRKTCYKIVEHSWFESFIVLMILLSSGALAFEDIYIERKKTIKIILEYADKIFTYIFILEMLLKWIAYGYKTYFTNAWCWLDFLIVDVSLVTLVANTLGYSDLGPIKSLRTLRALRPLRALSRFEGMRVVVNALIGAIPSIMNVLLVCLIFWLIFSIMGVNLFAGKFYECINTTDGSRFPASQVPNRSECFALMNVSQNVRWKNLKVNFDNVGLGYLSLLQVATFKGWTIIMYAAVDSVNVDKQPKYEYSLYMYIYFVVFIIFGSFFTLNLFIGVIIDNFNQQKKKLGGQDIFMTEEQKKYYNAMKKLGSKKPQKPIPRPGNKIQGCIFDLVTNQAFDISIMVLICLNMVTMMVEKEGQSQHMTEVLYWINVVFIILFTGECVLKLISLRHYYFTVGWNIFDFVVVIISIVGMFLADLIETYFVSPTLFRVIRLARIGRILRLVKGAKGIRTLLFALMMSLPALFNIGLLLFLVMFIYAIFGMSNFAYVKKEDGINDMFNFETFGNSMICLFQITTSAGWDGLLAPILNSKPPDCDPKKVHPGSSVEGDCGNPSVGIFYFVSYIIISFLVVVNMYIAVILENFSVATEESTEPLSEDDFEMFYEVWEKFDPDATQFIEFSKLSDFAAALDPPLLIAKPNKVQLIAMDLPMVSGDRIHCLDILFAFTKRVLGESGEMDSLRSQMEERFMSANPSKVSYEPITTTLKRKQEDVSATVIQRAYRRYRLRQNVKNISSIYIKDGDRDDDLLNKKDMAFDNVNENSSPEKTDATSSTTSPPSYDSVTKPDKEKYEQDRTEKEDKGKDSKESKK", "T1 sequence (Q07699 19-218 partner)": "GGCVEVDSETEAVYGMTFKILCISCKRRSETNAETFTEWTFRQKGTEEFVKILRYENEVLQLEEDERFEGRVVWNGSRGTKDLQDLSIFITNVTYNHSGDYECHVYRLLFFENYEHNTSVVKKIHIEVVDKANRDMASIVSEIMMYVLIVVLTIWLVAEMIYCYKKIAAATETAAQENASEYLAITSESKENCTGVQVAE", "T1 sequence (O60939 30-215 partner)": "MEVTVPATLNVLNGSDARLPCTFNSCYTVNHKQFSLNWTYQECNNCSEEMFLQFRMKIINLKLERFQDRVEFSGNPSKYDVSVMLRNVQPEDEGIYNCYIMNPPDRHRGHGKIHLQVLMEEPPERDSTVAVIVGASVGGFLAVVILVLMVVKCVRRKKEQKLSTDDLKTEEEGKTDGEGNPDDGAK", "experiment": "FDSS membrane potential in-vitro assay", "assay_type": "cell-based", "conditions": "HEK293 cells expressing NaV1.7 α, β1, β2, veratridine and scorpion venom stimulation", "units": {"IC50": "nM"}, "values": [{"smiles": "O=C(O)C1CCCN(CCCc2cc(Cl)ccc2Oc2cc(F)c(S(=O)(=O)Nc3cscn3)cc2Cl)C1", "note": "(stereo not shown) [Example 19, 1-(3-(5-chloro-2-(2-chloro-5-fluoro-4-(N-(thiazol-4-yl)sulfamoyl)phenoxy)phenyl)propyl)piperidine-3-carboxylic acid]", "IC50": "> 1000"}, {"smiles": "O=C(O)C1CCN(CCCc2cc(Cl)ccc2Oc2cc(F)c(S(=O)(=O)Nc3cscn3)cc2Cl)CC1", "note": "[Example 14, 1-(3-(5-chloro-2-(2-chloro-5-fluoro-4-(N-(thiazol-4-yl)sulfamoyl)phenoxy)phenyl)propyl)piperidine-4-carboxylic acid]", "IC50": "> 1000"}, {"smiles": "O=C(O)CCNCCCc1cc(Cl)ccc1Oc1cc(F)c(S(=O)(=O)Nc2cscn2)cc1F", "note": "[Example 22, 3-((3-(5-chloro-2-(2,5-difluoro-4-(N-(thiazol-4-yl)sulfamoyl)phenoxy)phenyl)propyl)amino)propanoic acid]", "IC50": "> 1000"}, {"smiles": "N#Cc1cc(S(=O)(=O)Nc2cscn2)ccc1Oc1ccc(Cl)cc1CCCNCCC(=O)O", "note": "[Example 23, 3-((3-(5-chloro-2-(2-cyano-4-(N-(thiazol-4-yl)sulfamoyl)phenoxy)phenyl)propyl)amino)propanoic acid]", "IC50": "> 1000"}, {"smiles": "O=C(O)CNCCCc1cc(Cl)ccc1Oc1cc(F)c(S(=O)(=O)Nc2cscn2)cc1F", "note": "[Example 21, 2-((3-(5-chloro-2-(2,5-difluoro-4-(N-(thiazol-4-yl)sulfamoyl)phenoxy)phenyl)propyl)amino)acetic acid]", "IC50": "> 1000"}, {"smiles": "NC(CCNCCCc1cc(Cl)ccc1Oc1cc(F)c(S(=O)(=O)Nc2cscn2)cc1Cl)C(=O)O", "note": "(stereo not shown) [Example 17, 2-amino-4-((3-(5-chloro-2-(2-chloro-5-fluoro-4-(N-(thiazol-4-yl)sulfamoyl)phenoxy)phenyl)propyl)amino)butanoic acid]", "IC50": "> 1000"}]}]}
